Test results from paper PMC10667104, “Biosynthesis of natural and halogenated plant monoterpene indole alkaloids in yeast” (Nature Chemical Biology, 2023).

Biological target: T1, ADRA2A (Homo sapiens, UniProt P08913)
T1 sequence (P08913 1-465): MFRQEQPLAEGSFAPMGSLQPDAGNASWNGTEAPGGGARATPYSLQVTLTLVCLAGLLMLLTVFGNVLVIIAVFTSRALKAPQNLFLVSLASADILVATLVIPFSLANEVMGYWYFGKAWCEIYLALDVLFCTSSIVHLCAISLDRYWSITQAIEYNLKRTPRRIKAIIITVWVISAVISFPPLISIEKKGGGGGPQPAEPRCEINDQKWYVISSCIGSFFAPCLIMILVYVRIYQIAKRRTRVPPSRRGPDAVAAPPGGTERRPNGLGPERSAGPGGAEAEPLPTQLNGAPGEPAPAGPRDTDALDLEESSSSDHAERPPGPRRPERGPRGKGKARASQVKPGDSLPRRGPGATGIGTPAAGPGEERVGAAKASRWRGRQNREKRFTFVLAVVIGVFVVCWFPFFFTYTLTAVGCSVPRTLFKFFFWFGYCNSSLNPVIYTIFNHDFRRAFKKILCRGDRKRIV
Assay: cell-based

IC50: 59 µM
Structure (SMILES): COC(=O)C1=CO[C@@H](C)[C@@H]2Cn3ccc4c5ccccc5nc-4c3C[C@H]12 [1a, alstonine]
